TGI data for 15 compounds are collected here from PubChem BioAssay (NCI).

What all share (experiment): NCI tumour cell line growth inhibition, 48 h
The subject of assay [1] is ACHN renal.
Assay [2] concerns NCI/ADR-RES ovarian.
Assay [3] deals with K-562 leukemia.
For assay [4], the system named is MDA-N.
For assay [5], the system named is UACC-62 melanoma.
The subject of assay [6] is PC-3 prostate.
The test system of assay [7] is CAKI-1 renal.
The subject of assay [8] is HS 578T breast.
Assay [9] concerns NCI-H23 lung.
Assay [10] deals with SW-620 colon.
Assay [11] relates to IGROV1 ovarian.
The subject of assay [12] is DU-145 prostate.
Assay [13] concerns OVCAR-3 ovarian.
Assay [14] deals with NCI-H522 lung.
For assay [15], the system named is A498 renal.
Assay [16] concerns SK-MEL-2 melanoma.
Assay [17] relates to MDA-MB-435.
The subject of assay [18] is SK-MEL-5 melanoma.
For assay [19], the system named is HCT-15 colon.
For assay [20], the system named is SR leukemia.

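How tested: cells in 96-well plates exposed to compound for 48 hours at five concentrations. TGI marks complete inhibition of growth.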 Bounds are passed on as bounds.

For `CCSC1=N/C(=C\c2ccco2)C(NN)=N1`, the TGI in [1], in assay [2], in assay [3], in [4], in assay [5] and in assay [6] was more than 50 µM throughout. Further, the TGI in assay [7], in assay [8], in assay [9], in assay [10], in [11] and in assay [12] was more than 50 µM in each case. The TGI in assay [13], in assay [14], in assay [15], in [16], in assay [17] and in [18] was more than 50 µM in each case. The TGI in [19] was more than 50 µM.
Regarding `C=CCc1c(C)nc(C)nc1N/N=C/C=C/c1ccccc1`, the TGI in [1] was more than 100 µM; in assay [20] it was 57.3 µM; in assay [2] it was 64.8 µM; in assay [3], 87.4 µM; in assay [4], more than 100 µM; in assay [5], 53.4 µM. Further, the TGI is more than 100 µM in [6]; more than 100 µM in [7]; more than 100 µM in assay [8]; 94 µM in assay [9]; more than 100 µM in assay [10]; more than 100 µM in assay [11]. In addition, the TGI in assay [13] is 53.3 µM; in assay [14], more than 100 µM; in assay [15], 65.2 µM; in assay [16], more than 100 µM; in [17] it was more than 100 µM; in [18] it was 84.2 µM. This compound registered a TGI in assay [19] of more than 100 µM.
Consider `Cc1ccc(/C=N/Nc2nc3ccccc3s2)s1`, for which the TGI in assay [1], in assay [2], in assay [3], in assay [4], in assay [5] and in [6] was more than 100 µM throughout. The TGI in [7], in [8], in [9], in assay [10], in assay [11] and in [12] was more than 100 µM throughout. For the same compound, the TGI in assay [13], in assay [14], in [16], in assay [17], in [18] and in [19] was more than 100 µM each time.
With `CC1(C)Oc2ccc3c(=O)c(-c4ccccc4)c(-c4ccccc4)oc3c2C1C(=O)O` (centres undefined), the TGI in assay [2], in [3], in [4], in assay [5], in assay [6] and in assay [7] was more than 100 µM in each case. For the same compound, the TGI in assay [8], in assay [9], in assay [11], in assay [12], in assay [13] and in assay [14] was more than 100 µM in each case. The TGI in assay [15], in assay [16], in assay [17], in assay [18] and in assay [19] was more than 100 µM in each case.
Consider `c1ccc(N=C(N2CCOCC2)N(CCN2CCOCC2)c2ccccc2)cc1`, for which the TGI in assay [20], in assay [3], in [4], in assay [5], in assay [6] and in assay [7] was more than 100 µM each time. Also, the TGI in [8], in [9], in [10], in [11], in assay [12] and in assay [13] was more than 100 µM throughout. For the same compound, the TGI in assay [14], in assay [16], in [17], in assay [18] and in assay [19] was more than 100 µM throughout.
Regarding `Cc1n[n+](CC(=O)c2ccccc2)c2sc(N)nn12`, the TGI in [1], in assay [2], in assay [3], in assay [4], in assay [5] and in [6] was more than 100 µM in each case. The TGI in assay [7], in assay [8], in assay [9], in assay [10], in assay [11] and in assay [12] was more than 100 µM throughout. In addition, the TGI in assay [13], in [14], in assay [15], in [16], in assay [17] and in [18] was more than 100 µM in each case. This compound also came in with a TGI in assay [19] of more than 100 µM.
Turning to `CCCCC(C(=O)N/N=C/c1ccc([N+](=O)[O-])o1)C(=O)N/N=C/c1ccc([N+](=O)[O-])o1`, the TGI in [1] is 3.69 µM; in assay [2], 5.91 µM; in [3], 14.6 µM; in assay [4], 16.1 µM; in assay [5] it was 11.5 µM; in assay [6] it was 14.4 µM. Further, the TGI in assay [7] amounted to 14.7 µM; in [8], 5.57 µM; in [9] it was 4.65 µM; in assay [10] it was 6.71 µM; in assay [11], 4.22 µM; in assay [12] it was 42.9 µM. For the same compound, the TGI in [13] turned out to be 5.65 µM; in assay [15] it was 41 µM; in assay [16], 36.1 µM; in [17], 25.2 µM; in assay [18], 14.6 µM; in assay [19], 6.47 µM.
`Cc1nnc2sc(Cl)nn12`: the TGI was 54.8 µM in assay [1]; more than 100 µM in [2]; 72.9 µM in assay [3]; 48.9 µM in [4]; 18.9 µM in assay [5]; 47.2 µM in [6]. Further, the TGI was 43.6 µM in assay [7]; more than 100 µM in [8]; 34.8 µM in [9]; 16.6 µM in assay [10]; 30.7 µM in assay [11]; more than 100 µM in assay [12]. The TGI is 33.6 µM in [13]; 23.9 µM in [14]; more than 100 µM in assay [15]; 90.3 µM in [16]; 20.2 µM in assay [17]; 25.2 µM in [18]. Also, in [19], the TGI was determined as 45.6 µM.
For `NC1OC(COC(=O)c2ccccc2)C(O)C(OC(=O)c2ccccc2)C1OC(=O)c1ccccc1` (centres undefined), the TGI in assay [1] is 56 µM; in [2] it was more than 100 µM; in [4] it was 46.5 µM; in [5], 29.4 µM; in [6] it was 58.2 µM; in [8], 42.6 µM. For the same compound, the TGI in [9] is 61.9 µM; in [10], 53.6 µM; in assay [11], 35.9 µM; in assay [12], more than 100 µM; in assay [13], 75.5 µM; in assay [14], 58.5 µM. The TGI is 96.7 µM in [16], 46.7 µM in [17], 27.5 µM in assay [18] and more than 100 µM in assay [19].
Take `COc1ccc(N=Nc2c(C)c(C#N)c(=S)n(C3OC(COC(C)=O)C(OC(C)=O)C(OC(C)=O)C3OC(C)=O)c2C)cc1` (centres undefined): the TGI in [1], in assay [20], in [2], in assay [3], in [4] and in [5] was more than 100 µM in each case. Besides, the TGI in assay [6] was more than 100 µM; in [7], more than 100 µM; in [8] it was 82 µM; in assay [9], more than 100 µM; in assay [10], more than 100 µM; in assay [11], more than 100 µM. In addition, the TGI in assay [12], in [13] and in assay [18] was more than 100 µM in each case.
`C=CC(CBr)CCC(Br)C(C)(C)Br` (centres undefined): the TGI in assay [1], in assay [2], in [3], in assay [4], in assay [6] and in [7] was more than 10 µM in each case. Moreover, the TGI in assay [8], in [9], in assay [10], in assay [11], in assay [12] and in assay [13] was more than 10 µM each time. Moreover, the TGI in assay [14], in assay [15], in assay [16], in [17], in [18] and in assay [19] was more than 10 µM each time.
In the case of `CCC(=O)C1(N2CCOCC2)CCN(CCCC(=O)c2ccc(F)cc2)CC1`, the TGI in assay [1], in assay [2], in assay [3], in [4], in assay [5] and in assay [6] was more than 100 µM throughout. The TGI in [7], in [8], in [9], in assay [10], in assay [11] and in assay [12] was more than 100 µM in each case. Also, the TGI in assay [13], in [14], in [15], in assay [16], in assay [17] and in assay [18] was more than 100 µM throughout. This compound also showed a TGI in assay [19] of more than 100 µM.
Consider `CC(C)(Br)C(Br)CCC(=CCBr)CBr` (mixture of isomers), for which the TGI in [1] is 21.6 µM; in assay [20], 4.69 µM; in [3], 6.7 µM; in assay [4], 4.68 µM; in assay [5], 4.4 µM; in [7], 33.1 µM. Moreover, the TGI in assay [8] was 49.7 µM; in assay [9], 12.1 µM; in assay [10], 7.18 µM; in assay [11], 8.9 µM; in [12] it was 22.3 µM; in assay [14], 3.12 µM. The TGI in assay [15] worked out at 44.6 µM; in [16], 9.32 µM; in [17] it was 14.1 µM; in assay [18] it was 12.4 µM; in assay [19], 5.98 µM.
In the case of `Cc1ccc(-c2cc(-c3ccc(Cl)cc3)nc(/N=C3\C(=O)N(CN4CCOCC4)c4ccccc43)n2)cc1`, the TGI in [1] was 63.8 µM; in [2], more than 100 µM; in assay [3], 76.8 µM; in assay [4], 37.6 µM; in [5], 41.4 µM; in assay [6] it was more than 100 µM. The TGI is 80 µM in assay [7]; 51.5 µM in assay [8]; 46 µM in [9]; 62.8 µM in [10]; 39.3 µM in assay [11]; more than 100 µM in [12]. For the same compound, the TGI in [13] was more than 100 µM; in assay [14] it was 30.1 µM; in [15], 38.9 µM; in assay [16], 37.2 µM; in assay [17], 35 µM; in assay [18] it was 36.1 µM. Further, the TGI in assay [19] is more than 100 µM.
Regarding `CCOC(=O)/C(C=Nc1c(C)n(C)n(-c2ccccc2)c1=O)=C(/O)c1ccccc1`, the TGI in assay [1], in [20], in assay [3], in [4], in assay [5] and in assay [6] was more than 100 µM in each case. The TGI in [7], in [8], in assay [9], in assay [10], in [11] and in assay [12] was more than 100 µM each time. Also, the TGI in assay [13], in [14], in [15], in assay [16], in [17] and in assay [18] was more than 100 µM throughout. The same compound returned a TGI in assay [19] of more than 100 µM.
